Results as given in patent publication US6740304B2, “Receptor binding conjugates” (priority 1999, dated 2004).

Biological target: T1, folate binding protein (FBP) (Bos taurus, UniProt P02702)
T1 construct: purchased Sigma
Assay: Binding assay on immobilised folate binding protein (Scatchard type plot)
Conditions: Scatchard type plot (FIG. 1), for the conjugate assuming at least one binding-reactive folic acid per HIgG
Text: Immobilised folate binding protein (FBP) was used to investigate the binding characteristics of the folic acid conjugates. FBP (Sigma) with a binding capacity of […] folic acid per milligram protein was immobilised on high protein binding 96 well EIA/RIA assay plates (Costar Corning Inc. N.Y., USA)
FBP was labelled with ^125I by the Iodogen method and the labelled protein was isolated by eluting the reaction mixture on a PD-10 column. Purified ^125I-FBP in concentrations ranging form […] in PBS were added in to the 96 well assay plates and incubated on a rotating rack at 4° C. overnight. […] The immobilised quantities of the various concentrations of quadruplicates of ^125I FBP was determined as the ratio of L3/L1+L2 after measuring the radioactivity of the respective samples by liquid scintillation counting.
Wells were incubated with a solution of FBP in PBS and washed three times with PBS after removal of the incubation mixture. […] The specifically bound fraction of folic acid was determined by a similar method as described for ^125I-FBP, correcting for the faction of ^3H-FA retained in the wells that were preincubated with folic acid. […]
The specifically bound ^3H-FA was plotted against the concentration of ^3H-FA in a Scatchard type plot (FIG. 1). […] The following values were determined from the binding assay: […]

T1 sequence (P02702 20-234): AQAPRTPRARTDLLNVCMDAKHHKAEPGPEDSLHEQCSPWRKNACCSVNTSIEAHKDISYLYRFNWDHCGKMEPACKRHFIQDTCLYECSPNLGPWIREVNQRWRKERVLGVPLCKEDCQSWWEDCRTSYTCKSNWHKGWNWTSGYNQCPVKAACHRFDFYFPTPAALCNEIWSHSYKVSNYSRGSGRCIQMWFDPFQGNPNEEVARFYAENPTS

Ka: 2×10^8
Substance: ^3H-Folic acid [^3H-FA]
